This note sets out measurements from US20240368096A1 (Enanta Pharmaceuticals, Inc., priority 2022, published 2024).

The test system of the assay is HBV. The experiment in a line: HBV infection in HepG2-NTCP cells (HBeAg AlphaLISA in supernatants). Format: cell-based. To be noted: Hepatitis B virus, 192 h; HBV infection of HepG2-NTCP cells; HBeAg in supernatants at day 8 post infection; read-out: Cellular EC50. On the procedure:
HepG2-NTCP A3 cells were maintained in DMEM media supplemented with GlutaMAX™ 10% fetal bovine serum, 1% penicillin/streptomycin, and 5 μg/mL puromycin at 37° C. in a humidified atmosphere with 5% CO2 in a collagen-coated tissue culture flask.
HepG2-NTCP cells were seeded in 384 well plate containing 16,000 cells/well two days prior to the infection. On the day of infection, compounds were 3-fold serially diluted in DMSO and pre-incubated with HepG2-NTCP cells for two hours before purified HBV addition. HBV infection was carried out at 2000 GE/cell with 4% PEG, and the final concentration of DMSO is 0.5%. On day one post infection, HBV-containing media was aspirated, cells were washed once with PBS and then maintained in 2.5% DMSO containing media for the remainder of the assay.
Supernatants from infected HepG2-NTCP cells were collected at day 8 post infection, and the amount of viral antigen HBeAg was measured by HBeAg AlphaLISA detection kit (PerkinElmer) following the manufacturer's recommended protocol. Irrespective of readout, compound concentrations that reduce viral product accumulation in supernatants by […] relative to DMSO controls (EC50) are reported. EC50 ranges are as follows: A<0.1 μM; B 0.1-1 μM; C>1 μM.
For the compound `CN1[C@H](C2CCCCC2)CN(c2ccccc2)c2cc(-n3ccccc3=O)c(-c3ccc(F)c(C(=O)O)c3)cc2S1(=O)=O` [Example 530], the EC50 was > 1000 nM.
As for `CN1[C@H](C2CCCCC2)CN(c2ccccc2)c2cc(OC3CCC(C)(C)CC3)c(-c3ccc(F)c(C(=O)O)c3)cc2S1(=O)=O` [Example 386], the figure is 100 to 1000 nM; as for `CN1[C@H](C2CCCCC2)CN(c2ccccc2)c2cc(N3CCCCC3)c(-c3ccc(Cl)c(C(=O)O)c3)cc2S1(=O)=O` [Example 558, (R)-2-chloro-5-(3-cyclohexyl-2-methyl-1,1-dioxido-5-phenyl-7-(piperidin-1-yl)-2,3,4,5-tetrahydrobenzo[f][1,2,5]thiadiazepin-8-yl)benzoic acid], < 100 nM.
To `CC(C)C[C@@H]1CN(c2ccccc2)c2cc(OC3CN(C)C3)c(-c3ccc(F)c(C(=O)O)c3)cc2S(=O)(=O)N1C` [Example 447] belongs > 1000 nM; to `Cc1cnc(COc2cc3c(cc2-c2ccc(F)c(C(=O)O)c2)S(=O)(=O)N(C)[C@H](C2CCCCC2)CN3c2ccccc2)s1` [Example 342], < 100 nM.
Regarding `CN1[C@H](C2CCCCC2)CN(c2ccccc2)c2cc(O[C@@H]3CCCNC3)c(-c3ccc(F)c(C(=O)O)c3)cc2S1(=O)=O` [Example 399], the EC50 was > 1000 nM.
To `CN1[C@H](C2CCCCC2)CN(c2ccccc2)c2cc(C3CCN(C(=O)C(F)(F)F)C3)c(-c3ccc(F)c(C(=O)O)c3)cc2S1(=O)=O` (stereo partly drawn) [Example 601] belongs 100 to 1000 nM; to `CCCC[C@@H]1CN(c2ccccc2)c2cc(F)c(-c3ccc(N(C)C)c(C(=O)O)c3)cc2S(=O)(=O)N1C` [Example 523], 100 to 1000 nM; to `CC(C)CC1CN(c2ccccc2)c2cc(Cl)c(-c3cc(C(=O)O)n(C)n3)cc2S(=O)(=O)N1C` (stereo not drawn) [Example 39], 100 to 1000 nM.
On to `CN1[C@H](C2CCCCC2)CN(c2ccccc2)c2cc(Cl)c(-c3cc(NC(=O)OCC(C)(C)C#N)c(C(=O)O)s3)cc2S1(=O)=O` [Example 256], for which the 50% effective concentration (EC50) was < 100 nM.
As for `CN1[C@H](C2CCCCC2)CN(c2ccccc2)c2cc(OCC3CCC3)c(-c3ccc(F)c(C(=O)O)c3)cc2S1(=O)=O` [Example 364], the figure is < 100 nM; as for `CN1[C@@H](Cc2ccc(Cl)cc2)CN(c2ccccc2)c2cc(C#N)c(-c3cccc(C(=O)O)c3)cc2S1(=O)=O` [Example 13], > 1000 nM; as for `CCCC[C@H]1CN(c2ccccc2)c2cc(N3CCCCC3)c(-c3cccc(C(=O)O)c3)cc2S(=O)(=O)N1C` [Example 540], > 1000 nM.
As for `CCCC[C@@H]1CN(c2ccccc2)c2cc(Oc3cccc(Cl)c3)c(-c3ccc(F)c(C(=O)O)c3)cc2S(=O)(=O)N1C` [Example 423], the figure is < 100 nM; as for `COC1CCN(c2cc3c(cc2-c2ccc(F)c(C(=O)O)c2)S(=O)(=O)N(C)[C@H](C2CCCCC2)CN3c2ccccc2)CC1` [Example 534], 100 to 1000 nM.
As for `CN1[C@H](C2CCCCC2)CN(c2ccccc2)c2cc(Cl)c(-c3ccc(NS(=O)(=O)CCC(F)(F)F)c(C(=O)O)c3)cc2S1(=O)=O` [Example 268], the figure is < 100 nM.
Turning to `CN1[C@H](C2CCCCC2)CN(c2ccccc2)c2cc(Cl)c(-c3sc(C(=O)O)cc3F)cc2S1(=O)=O` [Example 119], the concentration for a half-maximal effect (EC50) was < 100 nM.
To `COc1cc(-c2cc3c(cc2Cl)N(c2ccccc2)C[C@@H](C2CCCCC2)N(C)S3(=O)=O)cc(C(=O)O)c1N` [Example 191] belongs < 100 nM; to `CC(C)C[C@@H]1CN(c2ccccc2)c2cc(Cl)c(-c3cccc(CC(=O)O)c3)cc2S(=O)(=O)N1C` [Example 173], > 1000 nM; to `CN1[C@H](C2CCCCC2)CN(c2ccccc2)c2cc(OCCC3CCN(C(=O)OC(C)(C)C)CC3)c(-c3ccc(F)c(C(=O)O)c3)cc2S1(=O)=O` [Example 367], < 100 nM.
As for `CN1[C@H](C2CCC2)CN(c2ccccc2)c2cc(Cl)c(-c3ccc(Cl)c(C(=O)O)c3)cc2S1(=O)=O` [Example 81], the figure is < 100 nM; as for `CC(=O)NS(=O)(=O)c1cc(-c2cc3c(cc2Cl)N(c2ccccc2)C[C@@H](C2CCCCC2)N(C)S3(=O)=O)ccc1F` [Example 223], < 100 nM.
To `CCC1CN(c2ccccc2)c2cc(Cl)c(-c3ccc(Cl)c(C(=O)O)c3)cc2S(=O)(=O)N1C` (stereo not drawn) [Example 46] belongs 100 to 1000 nM; to `CCCC[C@@H]1CN(c2ccccc2)c2cc(C)c(-c3ccc(F)c(C(=O)O)c3)cc2S(=O)(=O)N1C` [Example 566, (R)-5-(3-butyl-2,7-dimethyl-1,1-dioxido-5-phenyl-2,3,4,5-tetrahydrobenzo[f][1,2,5]thiadiazepin-8-yl)-2-fluorobenzoic acid], 100 to 1000 nM.
In the case of `CN1[C@H](C2CCCCC2)CN(c2ccccc2)c2cc(O[C@H]3C[C@@H](F)C3)c(-c3ccc(F)c(C(=O)O)c3)cc2S1(=O)=O` [Example 380], the 50% effective concentration (EC50) was < 100 nM.
As for `CCCC[C@H]1CN(c2ccccc2)c2cc(N3CCCC3)c(-c3ccc(F)c(C(=O)O)c3)cc2S(=O)(=O)N1C` [Example 543], the figure is > 1000 nM; as for `COCOC[C@@H]1CN(c2ccccc2)c2cc(Cl)c(-c3ccc(F)c(C(=O)O)c3)cc2S(=O)(=O)N1C` [Example 97, (S)-5-(7-chloro-3-((methoxymethoxy)methyl)-2-methyl-1,1-dioxido-5-phenyl-2,3,4,5-tetrahydrobenzo[f][1,2,5]thiadiazepin-8-yl)-2-fluorobenzoic acid], 100 to 1000 nM; as for `CC(C)C[C@@H]1CN(c2ccccc2)c2cc(-c3ccccc3F)c(-c3ccc(F)c(C(=O)O)c3)cc2S(=O)(=O)N1C` [Example 576], < 100 nM.
To `CC(C)CC1CN(c2ccccc2)c2cc(Cl)c(-c3ccc(Cl)c(C(=O)O)c3)cc2S(=O)(=O)N1C` (stereo not drawn) [Example 38] belongs < 100 nM; to `CC(C)C[C@@H]1CN(c2ccccc2)c2cc(Cl)c(-c3ccc(-c4ccccc4)c(C(=O)O)c3)cc2S(=O)(=O)N1C` [Example 215, (R)-4-(7-chloro-3-isobutyl-2-methyl-1,1-dioxido-5-phenyl-2,3,4,5-tetrahydrobenzo[f][1,2,5]thiadiazepin-8-yl)-[1,1′-biphenyl]-2-carboxylic acid], 100 to 1000 nM.
As for `CN1[C@H](C2CCCCC2)CNc2cc(-c3cccnc3)c(-c3ccc(F)c(C(=O)O)c3)cc2S1(=O)=O` [Example 572], the figure is 100 to 1000 nM; as for `CN1[C@H](C2CCCCC2)CN(c2ccccc2)c2cc(OCc3cscc3F)c(-c3cc(F)c(C(=O)O)s3)cc2S1(=O)=O` [Example 488], < 100 nM; as for `CN1[C@H](C2CCOCC2)CN(c2ccccc2)c2cc(Cl)c(-c3ccc(F)c(C(=O)O)c3)cc2S1(=O)=O` [Example 105, (R)-5-(7-chloro-2-methyl-1,1-dioxido-5-phenyl-3-(tetrahydro-2H-pyran-4-yl)-2,3,4,5-tetrahydrobenzo[f][1,2,5]thiadiazepin-8-yl)-2-fluorobenzoic acid], 100 to 1000 nM.
As for `CC(C)OCCOC(=O)Nc1cc(-c2cc3c(cc2Cl)N(c2ccccc2)C[C@@H](C2CCCCC2)N(C)S3(=O)=O)sc1C(=O)O` [Example 257], the EC50 was < 100 nM.
To `CN1[C@H](C2CCCCC2)CN(c2ccccc2)c2cc(Cl)c(-c3cc(C(=O)O)c4cc[nH]c4c3)cc2S1(=O)=O` [Example 209] belongs 100 to 1000 nM.
Turning to `CN1[C@H](C2CCCCC2)CN(c2ccccc2)c2cc(C3CCN(C(=O)OC(C)(C)C)C3)c(-c3ccc(F)c(C(=O)O)c3)cc2S1(=O)=O` (stereo partly drawn) [Example 593], the half-maximal effective concentration (EC50) lay in the range of 100 to 1000 nM.
As for `CC(C)C[C@@H]1CN(c2ccccc2)c2cc(Cl)c(-c3ccc(C4=CCC(C)(C)CC4)c(C(=O)O)c3)cc2S(=O)(=O)N1C` [Example 217], the figure is > 1000 nM.
In the case of `CCCCCNc1cc2c(cc1-c1ccc(F)c(C(=O)O)c1)S(=O)(=O)N(C)[C@H](C1CCCCC1)CN2c1ccccc1` [Example 528], the half-maximal effective concentration (EC50) was < 100 nM.
With `CN1[C@H](C2CCCCC2)CN(c2ccccc2)c2cc(OC3CC4(CCC4)C3)c(-c3ccc(F)c(C(=O)O)c3)cc2S1(=O)=O` [Example 377], the 50% effective concentration (EC50) was < 100 nM.
As for `Cc1ncc(N2C[C@@H](C3CCCCC3)N(C)S(=O)(=O)c3cc(-c4ccc(F)c(C(=O)O)c4)c(Cl)cc32)cn1` [Example 287], the figure is 100 to 1000 nM; as for `O=C(O)c1cc(-c2cc3c(cc2Cl)N(c2ccccc2)C[C@@H](C2CCCCC2)NS3(=O)=O)ccc1F` [Example 58], 100 to 1000 nM.
To `CC(C)C[C@@H]1CN(C2CC(F)(F)C2)c2cc(Oc3ccccc3F)c(-c3ccc(F)c(C(=O)O)c3)cc2S(=O)(=O)N1C` [Example 466, (R)-5-(5-(3,3-difluorocyclobutyl)-7-(2-fluorophenoxy)-3-isobutyl-2-methyl-1,1-dioxido-2,3,4,5-tetrahydrobenzo[f][1,2,5]thiadiazepin-8-yl)-2-fluorobenzoic acid] belongs 100 to 1000 nM; to `CC(C)C[C@@H]1CN(c2ccccc2)c2cc(OCCc3cscn3)c(-c3ccc(F)c(C(=O)O)c3)cc2S(=O)(=O)N1C` [Example 460], < 100 nM.
For `CCCC[C@@H]1CN(c2ccccc2)c2cc(Oc3ccccc3Cl)c(-c3ccc(F)c(C(=O)O)c3)cc2S(=O)(=O)N1C` [Example 422], the concentration giving a half-maximal response (EC50) lay within 100 to 1000 nM.
As for `CN1[C@H](C2CCCCC2)CN(c2ccccc2)c2cc(Oc3ccc(F)c(F)c3)c(-c3ccc(F)c(C(=O)O)c3)cc2S1(=O)=O` [Example 404], the figure is < 100 nM.
